From the supplement of paper PMC10307832

Experiments:
Assay in all cases: relative viability (nuclei count vs DMSO), 5 days (fraction); higher = more cells survive
[1] = test system: A-427
Method in brief: (§1)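 Dosing by pin tool came one day after lung cancer cell lines were seeded in 1536-well plates, using either one drug or a fixed anchor-drug dose plus five library-drug doses (not always all listed) in √10 steps. After 5 days, nuclei were counted on 4× images. Relative viability is treated-well nuclei count divided by vehicle-well nuclei count, and values are medians of duplicate plates.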

[2] = test system: HCC-15
Method in brief: as §1

[3] = test system: HCC-78
Method in brief: as §1

[4] = test system: HOP-62
Method in brief: as §1

[5] = test system: LC-2-ad
Method in brief: as §1

[6] = test system: LOU-NH91
Method in brief: as §1

[7] = test system: LXF-289
Method in brief: as §1

[8] = test system: NCI-H1734
Method in brief: as §1

[9] = test system: NCI-H1755
Method in brief: as §1

[10] = test system: NCI-H1792
Method in brief: as §1

[11] = test system: NCI-H1915
Method in brief: as §1

[12] = test system: NCI-H1975
Method in brief: as §1

[13] = test system: NCI-H2126
Method in brief: as §1

[14] = test system: NCI-H2228
Method in brief: as §1

[15] = test system: NCI-H2342
Method in brief: as §1

[16] = test system: NCI-H2347
Method in brief: as §1

[17] = test system: NCI-H358
Method in brief: as §1

[18] = test system: NCI-H460
Method in brief: as §1

[19] = test system: NCI-H647
Method in brief: as §1

[20] = test system: PC-3 [JPC-3]
Method in brief: as §1

[21] = test system: RERF-LC-KJ
Method in brief: as §1

[22] = test system: SK-LU-1
Method in brief: as §1

[23] = test system: SW 1573
Method in brief: as §1

Which relative viability ([1]; first compound 0.01 µM) does the source give for `NC(=O)Nc1cc(-c2cccc(F)c2)sc1C(=O)N[C@H]1CCCNC1` [AZD7762] + Nc1nc2[nH]cc(CCc3ccc(C(=O)N[C@@H](CCC(=O)O)C(=O)O)cc3)c2c(=O)[nH]1 [Pemetrexed] (partner 0.2 µM) here?
Its relative viability is 0.949.

What about the relative viability ([1]; first compound 0.03162 µM) of the same molecule?
The relative viability was 0.94.

And the relative viability ([1]; first compound 0.1 µM)?
Its relative viability is 1.11.

What about the relative viability ([1]; first compound 0.3162 µM) of the same molecule?
The relative viability was 0.916.

And the relative viability ([1]; first compound 1 µM)?
Its relative viability is 0.374.

What about the relative viability ([2]; first compound 0.01 µM) of the same molecule?
The relative viability was 0.213.

And the relative viability ([2]; first compound 0.03162 µM)?
The relative viability was 0.234.

And the relative viability ([2]; first compound 0.1 µM)?
The relative viability was 0.232.

What about the relative viability ([2]; first compound 0.3162 µM) of the same molecule?
Its relative viability is 0.209.

What about the relative viability ([2]; first compound 1 µM) of the same molecule?
Its relative viability is 0.187.

And the relative viability ([3]; first compound 0.01 µM)?
Its relative viability is 0.927.

And the relative viability ([3]; first compound 0.03162 µM)?
The relative viability was 0.903.

And the relative viability ([3]; first compound 0.1 µM)?
Its relative viability is 0.895.

And the relative viability ([3]; first compound 0.3162 µM)?
Its relative viability is 0.895.

What about the relative viability ([3]; first compound 1 µM) of the same molecule?
Its relative viability is 0.889.

What about the relative viability ([4]; first compound 0.01 µM) of the same molecule?
Its relative viability is 0.359.

What about the relative viability ([4]; first compound 0.03162 µM) of the same molecule?
The relative viability was 0.318.

And the relative viability ([4]; first compound 0.1 µM)?
Its relative viability is 0.264.

What about the relative viability ([4]; first compound 0.3162 µM) of the same molecule?
Its relative viability is 0.248.

And the relative viability ([4]; first compound 1 µM)?
Its relative viability is 0.208.

And the relative viability ([5]; first compound 0.01 µM)?
The relative viability was 0.3.

What about the relative viability ([5]; first compound 0.03162 µM) of the same molecule?
The relative viability was 0.277.

And the relative viability ([5]; first compound 0.1 µM)?
Its relative viability is 0.277.

And the relative viability ([5]; first compound 0.3162 µM)?
The relative viability was 0.229.

What about the relative viability ([5]; first compound 1 µM) of the same molecule?
Its relative viability is 0.241.

And the relative viability ([6]; first compound 0.01 µM)?
The relative viability was 0.437.

What about the relative viability ([6]; first compound 0.03162 µM) of the same molecule?
The relative viability was 0.306.

And the relative viability ([6]; first compound 0.1 µM)?
Its relative viability is 0.335.

And the relative viability ([6]; first compound 0.3162 µM)?
The relative viability was 0.359.

And the relative viability ([6]; first compound 1 µM)?
The relative viability was 0.349.

What about the relative viability ([7]; first compound 0.01 µM) of the same molecule?
The relative viability was 0.817.

And the relative viability ([7]; first compound 0.03162 µM)?
The relative viability was 0.864.

What about the relative viability ([7]; first compound 0.1 µM) of the same molecule?
Its relative viability is 0.949.

And the relative viability ([7]; first compound 0.3162 µM)?
Its relative viability is 0.803.

And the relative viability ([7]; first compound 1 µM)?
Its relative viability is 0.626.

And the relative viability ([8]; first compound 0.01 µM)?
Its relative viability is 0.398.

And the relative viability ([8]; first compound 0.03162 µM)?
Its relative viability is 0.353.

What about the relative viability ([8]; first compound 0.1 µM) of the same molecule?
Its relative viability is 0.334.

What about the relative viability ([8]; first compound 0.3162 µM) of the same molecule?
Its relative viability is 0.303.

And the relative viability ([8]; first compound 1 µM)?
Its relative viability is 0.28.

What about the relative viability ([9]; first compound 0.01 µM) of the same molecule?
The relative viability was 0.48.

And the relative viability ([9]; first compound 0.03162 µM)?
The relative viability was 0.441.

What about the relative viability ([9]; first compound 0.1 µM) of the same molecule?
The relative viability was 0.401.

What about the relative viability ([9]; first compound 0.3162 µM) of the same molecule?
Its relative viability is 0.36.

And the relative viability ([9]; first compound 1 µM)?
Its relative viability is 0.277.

What about the relative viability ([10]; first compound 0.01 µM) of the same molecule?
Its relative viability is 0.957.

And the relative viability ([10]; first compound 0.03162 µM)?
The relative viability was 0.822.

What about the relative viability ([10]; first compound 0.1 µM) of the same molecule?
Its relative viability is 0.844.

And the relative viability ([10]; first compound 0.3162 µM)?
The relative viability was 0.732.

And the relative viability ([10]; first compound 1 µM)?
Its relative viability is 0.421.

What about the relative viability ([11]; first compound 0.01 µM) of the same molecule?
Its relative viability is 0.434.

And the relative viability ([11]; first compound 0.03162 µM)?
The relative viability was 0.412.

And the relative viability ([11]; first compound 0.1 µM)?
Its relative viability is 0.346.

And the relative viability ([11]; first compound 0.3162 µM)?
Its relative viability is 0.264.

And the relative viability ([11]; first compound 1 µM)?
The relative viability was 0.217.

What about the relative viability ([12]; first compound 0.01 µM) of the same molecule?
The relative viability was 0.309.

What about the relative viability ([12]; first compound 0.03162 µM) of the same molecule?
The relative viability was 0.27.

What about the relative viability ([12]; first compound 0.1 µM) of the same molecule?
The relative viability was 0.254.

And the relative viability ([12]; first compound 0.3162 µM)?
Its relative viability is 0.221.

And the relative viability ([12]; first compound 1 µM)?
Its relative viability is 0.198.

And the relative viability ([13]; first compound 0.01 µM)?
Its relative viability is 0.659.

And the relative viability ([13]; first compound 0.03162 µM)?
Its relative viability is 0.646.

What about the relative viability ([13]; first compound 0.1 µM) of the same molecule?
Its relative viability is 0.553.

And the relative viability ([13]; first compound 0.3162 µM)?
Its relative viability is 0.576.

And the relative viability ([13]; first compound 1 µM)?
The relative viability was 0.365.

What about the relative viability ([14]; first compound 0.01 µM) of the same molecule?
Its relative viability is 0.279.

What about the relative viability ([14]; first compound 0.03162 µM) of the same molecule?
The relative viability was 0.328.

And the relative viability ([14]; first compound 0.1 µM)?
The relative viability was 0.293.

And the relative viability ([14]; first compound 0.3162 µM)?
The relative viability was 0.299.

And the relative viability ([14]; first compound 1 µM)?
Its relative viability is 0.2.

And the relative viability ([15]; first compound 0.01 µM)?
Its relative viability is 0.784.

And the relative viability ([15]; first compound 0.03162 µM)?
Its relative viability is 0.797.

What about the relative viability ([15]; first compound 0.1 µM) of the same molecule?
The relative viability was 0.78.

What about the relative viability ([15]; first compound 0.3162 µM) of the same molecule?
The relative viability was 0.755.

What about the relative viability ([15]; first compound 1 µM) of the same molecule?
The relative viability was 0.669.

And the relative viability ([16]; first compound 0.01 µM)?
Its relative viability is 0.448.

And the relative viability ([16]; first compound 0.03162 µM)?
The relative viability was 0.395.

What about the relative viability ([16]; first compound 0.1 µM) of the same molecule?
Its relative viability is 0.455.

What about the relative viability ([16]; first compound 0.3162 µM) of the same molecule?
Its relative viability is 0.403.

And the relative viability ([16]; first compound 1 µM)?
Its relative viability is 0.329.

And the relative viability ([17]; first compound 0.01 µM)?
Its relative viability is 0.23.

And the relative viability ([17]; first compound 0.03162 µM)?
Its relative viability is 0.188.

And the relative viability ([17]; first compound 0.1 µM)?
Its relative viability is 0.19.

And the relative viability ([17]; first compound 0.3162 µM)?
Its relative viability is 0.149.

What about the relative viability ([17]; first compound 1 µM) of the same molecule?
Its relative viability is 0.128.

What about the relative viability ([18]; first compound 0.01 µM) of the same molecule?
The relative viability was 0.0576.

What about the relative viability ([18]; first compound 0.03162 µM) of the same molecule?
Its relative viability is 0.0605.

And the relative viability ([18]; first compound 0.1 µM)?
Its relative viability is 0.0567.

What about the relative viability ([18]; first compound 0.3162 µM) of the same molecule?
Its relative viability is 0.0462.

And the relative viability ([18]; first compound 1 µM)?
The relative viability was 0.0366.

And the relative viability ([19]; first compound 0.01 µM)?
Its relative viability is 0.146.

And the relative viability ([19]; first compound 0.03162 µM)?
The relative viability was 0.128.

And the relative viability ([19]; first compound 0.1 µM)?
Its relative viability is 0.108.

And the relative viability ([19]; first compound 0.3162 µM)?
Its relative viability is 0.0887.

What about the relative viability ([19]; first compound 1 µM) of the same molecule?
The relative viability was 0.0641.

What about the relative viability ([20]; first compound 0.01 µM) of the same molecule?
The relative viability was 0.626.

And the relative viability ([20]; first compound 0.03162 µM)?
Its relative viability is 1.08.

And the relative viability ([20]; first compound 0.1 µM)?
Its relative viability is 1.12.

And the relative viability ([20]; first compound 0.3162 µM)?
Its relative viability is 0.859.

And the relative viability ([20]; first compound 1 µM)?
The relative viability was 0.688.

And the relative viability ([21]; first compound 0.01 µM)?
The relative viability was 0.48.

What about the relative viability ([21]; first compound 0.03162 µM) of the same molecule?
The relative viability was 0.461.

What about the relative viability ([21]; first compound 0.1 µM) of the same molecule?
Its relative viability is 0.441.

And the relative viability ([21]; first compound 0.3162 µM)?
Its relative viability is 0.399.

What about the relative viability ([21]; first compound 1 µM) of the same molecule?
Its relative viability is 0.392.

And the relative viability ([22]; first compound 0.01 µM)?
Its relative viability is 1.14.

And the relative viability ([22]; first compound 0.03162 µM)?
Its relative viability is 0.776.

What about the relative viability ([22]; first compound 0.1 µM) of the same molecule?
Its relative viability is 0.698.

And the relative viability ([22]; first compound 0.3162 µM)?
Its relative viability is 0.299.

And the relative viability ([22]; first compound 1 µM)?
Its relative viability is 0.238.

What about the relative viability ([23]; first compound 0.01 µM) of the same molecule?
The relative viability was 0.796.

What about the relative viability ([23]; first compound 0.03162 µM) of the same molecule?
The relative viability was 0.778.

What about the relative viability ([23]; first compound 0.1 µM) of the same molecule?
Its relative viability is 0.717.

And the relative viability ([23]; first compound 0.3162 µM)?
The relative viability was 0.604.

And the relative viability ([23]; first compound 1 µM)?
The relative viability was 0.272.
